Assay results: patent US9675077B2, “Composition comprising antimicrobial metal ions and a quaternary cationic surfactant” (CONVATEC TECHNOLOGIES INC., priority 2011, dated 2017)

Key:
[1] = tested on: bacterial biofilms; assay: MBEC (Minimum Biofilm Eradication Concentration) assay using the Calgary Biofilm Device; type: cell-based; conditions: for MBEC for the metal ion, Without DDAC: metal ion solution alone, adjusted to approx. pH 5.5; for MBEC for the metal ion, Without DDAC / MBEC for the metal ion, With 0.1% DDAC: lowest concentration at which activity was observed, values approximate; for MBEC for the metal ion, With 0.1% DDAC: metal ion solution in combination with 0.1% DDAC, approx. pH 5.5; for Synergy: metal ion with 0.1% DDAC versus metal ion without DDAC
[2] = tested on: a range of microorganisms in the biofilm state

| Compound | MBEC for the metal ion, Without DDAC [1] | MBEC for the metal ion, With 0.1% DDAC [1] | Synergy [1] | Effectiveness against biofilms in the MBEC model ([1]; 0.01% w/w silver, 0.1M acetate buffer, pH 4.7 to 7.7, no surfactant) | EDTA concentration effective in making biofilm microorganisms vulnerable to antimicrobial agents [2] | Effect of EDTA on the synergistic antimicrobial activity of cationic surfactant and metal ion ([1]; […] w/w di-sodium EDTA in each test solution) |
| --- | --- | --- | --- | --- | --- | --- |
| copper (II) nitrate trihydrate | 15.6 ppm | 1.95 ppm | +ve |  |  |  |
| O=[N+]([O-])[O-].[Ag+] [Silver, silver nitrate] | 12.5 ppm | 0.097 ppm | +ve | None of the 0.01% silver solutions pH buffered in the range 4.7 to 7.7 were effective against biofilms |  |  |
| zinc sulphate heptahydrate | >1000 ppm | ≦125 ppm | +ve |  |  |  |
| O.O.O.O.O.O.O.O=S(=O)([O-])[O-].[Fe+2] [Iron (II), iron (II) sulphate heptahydrate] | >1000 ppm | ≦0.24 ppm | +ve |  |  |  |
| iron (III) sulphate hydrate | >1000 ppm | ≦0.24 ppm | +ve |  |  |  |
| O=C(O)CN(CCN(CC(=O)O)CC(=O)O)CC(=O)O [EDTA, ethylenediaminetetra-acetic acid] |  |  |  |  | 0.25-0.5 % weight by volume | further enhances the synergistic antimicrobial activity |
| O=[N+]([O-])[O-].O=[N+]([O-])[O-].O=[N+]([O-])[O-].[Ga+3] [Gallium, gallium (III) nitrate] | >1000 ppm | ≦0.24 ppm | +ve |  |  |  |
| O.O.O.O.[Cl][Mn][Cl] [Manganese, manganese (II) chloride tetrahydrate] | >1000 ppm | ≦0.24 ppm | +ve |  |  |  |
